The subject of assay [1] is Bacillus subtilis. Briefly: Antibacterial activity against Bacillus subtilis CMCC-B 63501 by twofold serial dilution method. The assay is classed as functional.
Assay [2] concerns Bacillus subtilis. The experiment in a line: Antibacterial activity against Bacillus subtilis CMCC-B 63501 up to 500 ug/ml by twofold serial dilution method. The assay is classed as functional, organism-based.
[3] abbreviates: Bacillus subtilis, read-out: MIC.

Each structure is given as a SMILES string. In brackets after ≈: the same amount, converted by molar mass. Activity calls are given as the source filed them. The rule behind the calls is not given here.

For the compound `CC(C)C[C@@H]1NC(=O)[C@H](CCCN)NC(=O)[C@H](C(C)C)NC(=O)[C@H](Cc2ccc(O)cc2)NC(=O)[C@H](CCC(N)=O)NC(=O)[C@H](CC(=O)NCCO[C@@H]2O[C@H](CO)[C@@H](O[C@@H]3O[C@H](CO)C(O)[C@H](O)[C@H]3O)[C@H](O)[C@H]2O)NC(=O)C(Cc2ccccc2)NC(=O)[C@H](Cc2ccccc2)NC(=O)[C@@H]2CCCN2C(=O)C(Cc2ccccc2)NC1=O` (single isomer, unassigned), the MIC in assay [1] (setting [3]) turned out to be 62 µg/mL (≈ 37.8 µM).
Take `CC(=O)N[C@@H]1[C@@H](O)[C@H](O)[C@@H](CO)O[C@H]1NC(=O)C[C@@H]1NC(=O)C(Cc2ccccc2)NC(=O)[C@H](Cc2ccccc2)NC(=O)[C@@H]2CCCN2C(=O)C(Cc2ccccc2)NC(=O)[C@H](CC(C)C)NC(=O)[C@H](CCCN)NC(=O)[C@H](C(C)C)NC(=O)[C@H](Cc2ccc(O)cc2)NC(=O)[C@H](CCC(N)=O)NC1=O` (single isomer, unassigned): the outcome in assay [2] was inactive.
Still for that read-out and setting: then `CC(=O)N[C@@H]1[C@@H](O)[C@H](O[C@@H]2O[C@H](CO)[C@@H](O)[C@H](O)[C@H]2NC(C)=O)[C@@H](CO)O[C@H]1NC(=O)C[C@@H]1NC(=O)C(Cc2ccccc2)NC(=O)[C@H](Cc2ccccc2)NC(=O)[C@@H]2CCCN2C(=O)C(Cc2ccccc2)NC(=O)[C@H](CC(C)C)NC(=O)[C@H](CCCN)NC(=O)[C@H](C(C)C)NC(=O)[C@H](Cc2ccc(O)cc2)NC(=O)[C@H](CCC(N)=O)NC1=O` (single isomer, unassigned), with “inactive”.
Turning to `CC(C)C[C@@H]1NC(=O)[C@H](CCCN)NC(=O)[C@H](C(C)C)NC(=O)[C@H](Cc2ccc(O)cc2)NC(=O)[C@H](CCC(N)=O)NC(=O)[C@H](CC(N)=O)NC(=O)[C@@H](Cc2ccccc2)NC(=O)[C@H](Cc2ccccc2)NC(=O)[C@@H]2CCCN2C(=O)[C@@H](Cc2ccccc2)NC1=O` (stereo in doubt) [TYROCIDINE A], the MIC in assay [1] was 20 µg/mL (≈ 15.7 µM).
Regarding `CC(C)C[C@@H]1NC(=O)[C@H](CCCN)NC(=O)[C@H](C(C)C)NC(=O)[C@H](Cc2ccc(O)cc2)NC(=O)[C@H](CCC(N)=O)NC(=O)[C@H](CC(N)=O)NC(=O)[C@@H](Cc2ccccc2)NC(=O)[C@H](Cc2ccccc2)NC(=O)[C@@H]2CCCN2C(=O)[C@@H](Cc2ccccc2)NC1=O` (stereo in doubt; 1) [TYROCIDINE A], the MIC in assay [1] (setting [3]) worked out at 31 µg/mL (≈ 24.4 µM).

Values taken from ChEMBL document CHEMBL1153375, “Synthesis and antibacterial activities of N-glycosylated derivatives of tyrocidine A, a macrocyclic peptide antibiotic” (2009).
